In PubChem BioAssay AID1919013 (Molecular Pharmacology Branch, DTP, NCI, 2023):

Test system: LG0703-F498-PDC complex spheroid growth
Test: Anticancer human tumor LG0703-F498-PDC patient-derived lung adenocarcinoma cell line growth inhibition [AhR]
Details: for IC50: curve of first compound; for viability, T/C: stronger effect = lower value
Excerpt: Multicellular complex tumor spheroid response to aryl hydrocarbon receptor antagonists in combination with a variety of drugs and investigational agents in selected tumor cell lines
The current study was undertaken to assess response to aryl hydrocarbon receptor antagonists in combination with standard-of-care drugs and investigational agents in solid tumor complex spheroid models. Complex spheroids include a stromal component modeled by human endothelial cells (HUVEC) and fibroblasts modeled by human mesenchymal stem cells (MSCs). The concentration ranges selected for each drug and investigational agent were based upon clinically achievable concentrations if the clinical Cmax of the agent was known.
Compounds. The drugs and investigational agents: BAY 2416964 (NSC825713), GNF351 (NSC835774), CH-223191 (NSC835775), CPI-455 (NSC825282), aza-TdCyd (NSC777586), decitabine (NSC127716), belinostat (NSC758774), entinostat (NSC756642), pevonedistat (NSC761192), tazemetostat (NSC777109), talazoparib (NSC765396), olaparib (NSC753686), selinexor (NSC780203), nedisertib (M3814, NSC802822), bortezomib (NSC756655), venetoclax (NSC766270), doxorubicin (NSC123127), elimusertib (BAY189344, NSC800525), ceralasertib (AZD6738, NSC777638), TAK-243 (NSC785004), alisertib (NSC759677), etoposide (NSC141540), topotecan (NSC609699), eribulin (NSC707389), gemcitabine (NSC613327), carboplatin (NSC241240), cisplatin (NSC119875), and SN-38 (NSC673596) were obtained from the National Cancer Institute (NCI) Developmental Therapeutics Program Chemical Repository (32). The FDA-approved anticancer drug set is available from the Developmental Therapeutics Program at https://dtp.cancer.gov/organization/dscb/obtaining/available plates.htm. […] The stock solutions were prepared in dimethyl sulfoxide (DMSO, Sigma-Aldrich, St. Louis, MO, cat. D2650), except for the platinum compounds which were prepared in saline (Quality Biological, Gaithersburg, MD, cat. 114-055-101), at 800-fold the tested concentration and stored at -70 degrees C prior to their use. All drugs and investigational agents were tested over a range starting from a high concentration at or near the clinical Cmax and decreasing in half-log increments. If the clinical Cmax for an agent had not been determined, the highest concentration tested was 10 microM (Table 1).
Cell Culture. All cells were maintained in an incubator at 37 degrees C and 5% CO2 with 95% humidity. The PDC lines were cultured according to standard operating procedures established by the NCI PDMR (https://pdmr.cancer.gov). Briefly, all PDCs were thawed and cultured in Matrigel-coated flasks prepared with a working solution of 1X Ham's F-12 nutrient mix, without supplementation (Invitrogen, Waltham, MA, cat. 11765054), 100 U/mL penicillin-streptomycin (Invitrogen, cat. 15140122), and 2.5% Matrigel (Corning Inc., Corning, NY, cat. 354248) for the first three passages. All PDCs were cultured in complete DMEM/F-12 media containing advanced DMEM/F-12 (Invitrogen, cat. 12634028), 4.9% defined fetal bovine serum, heat inactivated (HyClone Laboratories Inc., Logan, UT, cat. SH30070.03HI), 389 ng/mL hydrocortisone (Sigma-Aldrich, cat. H4001), 9.7 ng/mL human EGF recombinant protein (Invitrogen, cat. PHG0313), 23.4 microg/mL adenine (Sigma-Aldrich, cat. A2786), 97.3 U/mL penicillin-streptomycin (Invitrogen, cat. 15140122), 1.9 mM L-glutamine (Invitrogen, cat. 25030081), and 9.7 microM Y-27632 dihydrochloride (Tocris Bioscience, Bristol, United Kingdom, cat. 1254). The PDCs were cultured in complete DMEM/F12 media without 10 microM Y-27632 dihydrochloride for at least two passages prior to the screen. The established cell lines NCI-H1341 and […] were cultured in DMEM/F-12, HEPES (Invitrogen, cat. 11330032), 5% defined fetal bovine serum (HyClone Laboratories Inc., cat. SH30070.03), ITS premix universal culture supplement [insulin (5 microg/mL), transferrin (5 microg/mL), and selenious acid (5 ng/mL)] […]

[1] = second compound 0.1 µM, first compound 0.0316 µM
[2] = second compound 0.1 µM, first compound 0.1 µM
[3] = second compound 0.1 µM, first compound 0.316 µM
[4] = second compound 0.1 µM, first compound 1 µM
[5] = second compound 0.1 µM, first compound 3.16 µM
[6] = second compound 0.1 µM, first compound 10 µM
[7] = second compound 0.316 µM, first compound 0.0316 µM
[8] = second compound 0.316 µM, first compound 0.1 µM
[9] = second compound 0.316 µM, first compound 0.316 µM
[10] = second compound 0.316 µM, first compound 1 µM
[11] = second compound 0.316 µM, first compound 3.16 µM
[12] = second compound 0.316 µM, first compound 10 µM
[13] = second compound 1 µM, first compound 0.0316 µM
[14] = second compound 1 µM, first compound 0.1 µM
[15] = second compound 1 µM, first compound 0.316 µM
[16] = second compound 1 µM, first compound 1 µM
[17] = second compound 1 µM, first compound 3.16 µM
[18] = second compound 1 µM, first compound 10 µM
[19] = second compound 3.16 µM, first compound 0.0316 µM
[20] = second compound 3.16 µM, first compound 0.1 µM
[21] = second compound 3.16 µM, first compound 0.316 µM
[22] = second compound 3.16 µM, first compound 1 µM
[23] = second compound 3.16 µM, first compound 3.16 µM
[24] = second compound 3.16 µM, first compound 10 µM
[25] = second compound 10 µM, first compound 0.0316 µM
[26] = second compound 10 µM, first compound 0.1 µM
[27] = second compound 10 µM, first compound 0.316 µM
[28] = second compound 10 µM, first compound 1 µM
[29] = second compound 10 µM, first compound 3.16 µM
[30] = second compound 10 µM, first compound 10 µM
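Note: luminescence taken as a proxy for viable cell amount.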
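Throughout, for viability, T/C: percent of DMSO vehicle control where 100% means growth equal to vehicle.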

Structure (SMILES)	IC50 (second compound 0.1 µM) [µM]	IC50 (second compound 0.316 µM) [µM]	IC50 (second compound 1 µM) [µM]	IC50 (second compound 3.16 µM) [µM]	IC50 (second compound 10 µM) [µM]	viability, T/C [1] [%]	viability, T/C [2] [%]	viability, T/C [3] [%]	viability, T/C [4] [%]	viability, T/C [5] [%]	viability, T/C [6] [%]	viability, T/C [7] [%]	viability, T/C [8] [%]	viability, T/C [9] [%]	viability, T/C [10] [%]	viability, T/C [11] [%]	viability, T/C [12] [%]	viability, T/C [13] [%]	viability, T/C [14] [%]	viability, T/C [15] [%]	further results
COc1cc(C2c3cc4c(cc3C(OC3OC5COC(C)OC5C(O)C3O)C3COC(=O)C23)OCO4)cc(OC)c1O (stereo not given) + CC(CO)NC(=O)c1cc(-c2ccc(Cl)cc2)nn(-c2cnn(C)c2)c1=O	> 10	> 10	> 10	> 10	> 10	111	108	93.9	87.9	81.8	76.3	98.6	107	99.8	81.5	93.3	69.9	100	103	101	viability, T/C [16]: 94.3%; viability, T/C [17]: 75.7%; viability, T/C [18]: 75.2%; viability, T/C [19]: 91.1%; viability, T/C [20]: 95.8%; viability, T/C [21]: 96.5%; viability, T/C [22]: 81.7%; viability, T/C [23]: 72.8%; viability, T/C [24]: 75.5%; viability, T/C [25]: 84.3%; viability, T/C [26]: 85.7%; viability, T/C [27]: 90.7%; viability, T/C [28]: 78%; viability, T/C [29]: 73%; viability, T/C [30]: 60.8%
Nc1ccn(C2OC(CO)C(O)C2(F)F)c(=O)n1 (stereo not given) + CC(CO)NC(=O)c1cc(-c2ccc(Cl)cc2)nn(-c2cnn(C)c2)c1=O	< 0.0316	< 0.0316	< 0.0316	< 0.0316	< 0.0316	43.6	43.4	39.1	38.8	35.7	26.6	43.3	41.7	41.1	38.3	28.4	27.3	46.7	47.5	39.9	viability, T/C [16]: 37.9%; viability, T/C [17]: 31%; viability, T/C [18]: 27.1%; viability, T/C [19]: 42.8%; viability, T/C [20]: 41.9%; viability, T/C [21]: 41.9%; viability, T/C [22]: 39.2%; viability, T/C [23]: 29.2%; viability, T/C [24]: 23.9%; viability, T/C [25]: 40%; viability, T/C [26]: 40.5%; viability, T/C [27]: 45%; viability, T/C [28]: 34.5%; viability, T/C [29]: 27.2%; viability, T/C [30]: 23.7%
